Values joined by “and” are separate entries in the source; they are usually repeats but may differ in a detail not shown here. Equal values may be shown once.
System: BDF1 mice, Adenocarcinoma 755 s.c., tumor weight T/C
Experiment: NCI In Vivo Anticancer Drug Screen. Data for tumor model Adenocarcinoma 755 (subcutaneous) in B6D2F1 (BDF1) mice
Settings: endpoint: mean tumor weight, higher = larger tumour
Method in brief: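 In vivo antitumor screen on a transplantable tumor line. Result equals the measure in compound-treated animals divided by the same measure in vehicle controls.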

CS(=O)(=O)OCCCCOS(C)(=O)=O
T/C (dose: 3.75 mg/kg/injection, schedule: Q03DX004 (ip), vehicle: saline): 111 % of control
T/C (dose: 5.0 mg/kg/injection, schedule: Q#A X022 (ip), vehicle: saline): 54 % of control
T/C (dose: 6.63 mg/kg/injection, schedule: Q01DX011 (ip), vehicle: carboxymethylcellulose (CMC)): 95 % of control
T/C (dose: 6.66 mg/kg/injection, schedule: Q01DX011 (ip), vehicle: carboxymethylcellulose (CMC)): 99 % of control
T/C (dose: 9.36 mg/kg/injection, schedule: Q01DX011 (ip), vehicle: carboxymethylcellulose (CMC)): 66 % of control
T/C (dose: 10.0 mg/kg/injection, schedule: Q01DX006 (iv), vehicle: saline): 117 % of control
T/C (dose: 10.0 mg/kg/injection, schedule: Q01DX011 (im), vehicle: saline): 36 % of control
T/C (dose: 10.0 mg/kg/injection, schedule: Q01DX011 (ip), vehicle: carboxymethylcellulose (CMC)): 62 % of control
T/C (dose: 10.0 mg/kg/injection, schedule: Q01DX011 (ip), vehicle: saline): 71 % of control
T/C (dose: 10.0 mg/kg/injection, schedule: Q01DX011 (oral), vehicle: saline): 81 % of control
T/C (dose: 10.0 mg/kg/injection, schedule: Q01DX011 (sc), vehicle: saline): 35 % of control
T/C (dose: 10.0 mg/kg/injection, schedule: Q#A X022 (ip), vehicle: saline): 80 % of control
T/C (dose: 12.5 mg/kg/injection, schedule: Q01DX011 (ip), vehicle: methylcellulose (MC)): 119 % of control
T/C (dose: 13.25 mg/kg/injection, schedule: Q01DX011 (ip), vehicle: carboxymethylcellulose (CMC)): 101 % of control
T/C (dose: 15.0 mg/kg/injection, schedule: Q03DX004 (ip), vehicle: saline): 87 % of control
T/C (dose: 16.75 mg/kg/injection, schedule: Q01DX011 (ip), vehicle: carboxymethylcellulose (CMC)): 68 % of control
T/C (dose: 17.5 mg/kg/injection, schedule: Q01DX011 (ip), vehicle: carboxymethylcellulose (CMC)): 106 % of control
T/C (dose: 17.87 mg/kg/injection, schedule: Q01DX011 (ip), vehicle: carboxymethylcellulose (CMC)): 77 % of control
T/C (dose: 18.73 mg/kg/injection, schedule: Q01DX011 (ip), vehicle: carboxymethylcellulose (CMC)): 76 % of control
T/C (dose: 20.0 mg/kg/injection, schedule: Q01DX006 (iv), vehicle: saline): 100 % of control
T/C (dose: 20.0 mg/kg/injection, schedule: Q01DX011 (im), vehicle: saline): 76 % of control
T/C (dose: 20.0 mg/kg/injection, schedule: Q01DX011 (ip), vehicle: carboxymethylcellulose (CMC)): 76 % of control
T/C (dose: 20.0 mg/kg/injection, schedule: Q01DX011 (oral), vehicle: saline): 49 % of control
T/C (dose: 20.0 mg/kg/injection, schedule: Q01DX011 (sc), vehicle: saline): 104 % of control
T/C (dose: 20.0 mg/kg/injection, schedule: Q#A X022 (ip), vehicle: saline): 39 % of control
T/C (dose: 21.2 mg/kg/injection, schedule: Q01DX011 (ip), vehicle: carboxymethylcellulose (CMC)): 91 % of control
T/C (dose: 21.32 mg/kg/injection, schedule: Q01DX011 (ip), vehicle: carboxymethylcellulose (CMC)): 81 % of control
T/C (dose: 25.0 mg/kg/injection, schedule: Q01DX011 (ip), vehicle: methylcellulose (MC)): 77 % of control
T/C (dose: 26.5 mg/kg/injection, schedule: Q01DX011 (ip), vehicle: carboxymethylcellulose (CMC)): 26 % of control and 50 % of control
T/C (dose: 26.65 mg/kg/injection, schedule: Q01DX011 (ip), vehicle: carboxymethylcellulose (CMC)): 53 % of control and 63 % of control
T/C (dose: 33.5 mg/kg/injection, schedule: Q01DX011 (ip), vehicle: carboxymethylcellulose (CMC)): 83 % of control
T/C (dose: 35.0 mg/kg/injection, schedule: Q01DX011 (ip), vehicle: carboxymethylcellulose (CMC)): 98 % of control
T/C (dose: 35.33 mg/kg/injection, schedule: Q01DX011 (ip), vehicle: carboxymethylcellulose (CMC)): 34 % of control
T/C (dose: 35.5 mg/kg/injection, schedule: Q01DX011 (ip), vehicle: carboxymethylcellulose (CMC)): 38 % of control
T/C (dose: 35.75 mg/kg/injection, schedule: Q01DX011 (ip), vehicle: carboxymethylcellulose (CMC)): 81 % of control
T/C (dose: 37.45 mg/kg/injection, schedule: Q01DX011 (ip), vehicle: carboxymethylcellulose (CMC)): 73 % of control
T/C (dose: 40.0 mg/kg/injection, schedule: Q01DX006 (iv), vehicle: saline): 84 % of control
T/C (dose: 40.0 mg/kg/injection, schedule: Q01DX011 (im), vehicle: saline): 17 % of control
T/C (dose: 40.0 mg/kg/injection, schedule: Q01DX011 (ip), vehicle: carboxymethylcellulose (CMC)): 10 % of control
T/C (dose: 40.0 mg/kg/injection, schedule: Q01DX011 (oral), vehicle: saline): 30 % of control and 49 % of control
T/C (dose: 40.0 mg/kg/injection, schedule: Q01DX011 (sc), vehicle: saline): 41 % of control and 45 % of control
T/C (dose: 40.0 mg/kg/injection, schedule: Q#A X022 (ip), vehicle: saline): 17 % of control
T/C (dose: 50.0 mg/kg/injection, schedule: Q01DX011 (ip), vehicle: methylcellulose (MC)): 30 % of control
T/C (dose: 53.0 mg/kg/injection, schedule: Q01DX011 (ip), vehicle: carboxymethylcellulose (CMC)): 3 % of control
T/C (dose: 53.3 mg/kg/injection, schedule: Q01DX011 (ip), vehicle: carboxymethylcellulose (CMC)): 1 % of control
T/C (dose: 57.96 mg/kg/injection, schedule: Q01DX011 (ip), vehicle: carboxymethylcellulose (CMC)): 113 % of control
T/C (dose: 60.0 mg/kg/injection, schedule: Q03DX004 (ip), vehicle: saline): 67 % of control and 71 % of control
T/C (dose: 67.0 mg/kg/injection, schedule: Q01DX011 (ip), vehicle: carboxymethylcellulose (CMC)): 37 % of control
T/C (dose: 70.0 mg/kg/injection, schedule: Q01DX001 (ip), vehicle: saline): 90 % of control
T/C (dose: 70.0 mg/kg/injection, schedule: Q01DX011 (ip), vehicle: carboxymethylcellulose (CMC)): 49 % of control
T/C (dose: 70.0 mg/kg/injection, schedule: Q07DX002 (ip), vehicle: saline): 99 % of control
T/C (dose: 71.5 mg/kg/injection, schedule: Q01DX011 (ip), vehicle: carboxymethylcellulose (CMC)): 58 % of control
T/C (dose: 72.45 mg/kg/injection, schedule: Q01DX011 (ip), vehicle: carboxymethylcellulose (CMC)): 29 % of control
T/C (dose: 80.0 mg/kg/injection, schedule: Q01DX006 (iv), vehicle: saline): 88 % of control
T/C (dose: 80.0 mg/kg/injection, schedule: Q01DX011 (oral), vehicle: saline): 17 % of control and 27 % of control
T/C (dose: 96.6 mg/kg/injection, schedule: Q01DX011 (ip), vehicle: carboxymethylcellulose (CMC)): 19 % of control
T/C (dose: 120.0 mg/kg/injection, schedule: Q03DX004 (ip), vehicle: saline): 39 % of control and 62 % of control
T/C (dose: 140.0 mg/kg/injection, schedule: Q01DX001 (ip), vehicle: saline): 98 % of control and 111 % of control
T/C (dose: 140.0 mg/kg/injection, schedule: Q07DX002 (ip), vehicle: saline): 91 % of control
T/C (dose: 160.0 mg/kg/injection, schedule: Q01DX011 (ip), vehicle: saline): 14 % of control
T/C (dose: 160.0 mg/kg/injection, schedule: Q01DX011 (oral), vehicle: saline): 41 % of control
T/C (dose: 240.0 mg/kg/injection, schedule: Q03DX004 (ip), vehicle: saline): 24 % of control and 38 % of control
T/C (dose: 280.0 mg/kg/injection, schedule: Q07DX002 (ip), vehicle: saline): 77 % of control
T/C (dose: 320.0 mg/kg/injection, schedule: Q01DX011 (oral), vehicle: saline): 9 % of control
T/C (dose: 1120.0 mg/kg/injection, schedule: Q01DX001 (ip), vehicle: saline): 58 % of control

CCn1cnc2c(SC(C)C)ncnc21
T/C (dose: 16.0 mg/kg/injection, schedule: Q01DX011 (ip), vehicle: carboxymethylcellulose (CMC)): 42 % of control
T/C (dose: 31.0 mg/kg/injection, schedule: Q01DX011 (ip), vehicle: carboxymethylcellulose (CMC)): 4 % of control

O=Cc1ccccc1
T/C (dose: 3.12 mg/kg/injection, schedule: Q01DX011 (ip), vehicle: Klucel (hydroxypropylcellulose) (HPC)): 80 % of control
T/C (dose: 6.25 mg/kg/injection, schedule: Q01DX011 (ip), vehicle: Klucel (hydroxypropylcellulose) (HPC)): 52 % of control
T/C (dose: 12.5 mg/kg/injection, schedule: Q01DX011 (ip), vehicle: Klucel (hydroxypropylcellulose) (HPC)): 72 % of control
T/C (dose: 25.0 mg/kg/injection, schedule: Q01DX011 (ip), vehicle: Klucel (hydroxypropylcellulose) (HPC)): 109 % of control
T/C (dose: 50.0 mg/kg/injection, schedule: Q01DX011 (ip), vehicle: Klucel (hydroxypropylcellulose) (HPC)): 106 % of control
T/C (dose: 100.0 mg/kg/injection, schedule: Q01DX011 (ip), vehicle: Klucel (hydroxypropylcellulose) (HPC)): 80 % of control
T/C (dose: 200.0 mg/kg/injection, schedule: Q01DX011 (ip), vehicle: Klucel (hydroxypropylcellulose) (HPC)): 55 % of control
T/C (dose: 400.0 mg/kg/injection, schedule: Q01DX011 (ip), vehicle: Klucel (hydroxypropylcellulose) (HPC)): 56 % of control

CCCNS(=O)(=O)c1ncnc2nc[nH]c12
T/C (dose: 9.0 mg/kg/injection, schedule: Q01DX011 (ip), vehicle: carboxymethylcellulose (CMC)): 52 % of control
T/C (dose: 18.0 mg/kg/injection, schedule: Q01DX011 (ip), vehicle: carboxymethylcellulose (CMC)): 17 % of control
T/C (dose: 37.0 mg/kg/injection, schedule: Q01DX011 (ip), vehicle: carboxymethylcellulose (CMC)): 3 % of control

— PubChem BioAssay AID180 (DTP/NCI, 2004)
